Tests used:
[1] = target: T1, TRPML1 (Homo sapiens, UniProt Q9GZU1); assay: Cellular TRPML1 assay (FLIPR TETRA, GCaMP6f calcium read-out); type: cell-based; conditions: HEK T-REx/GCaMP6f/TRPML1 cells; Ca2+ response over 300 s, normalized to ML-SA1 50 μM; Ca2+ free or Optimem condition not given; read-out: Ec50 (Activity of TRPML1 agonists)
T1 construct: expressed in transfected cells
Protocol: Buffers and reagents • PBS (D-PBS without calcium and magnesium; EuroClone) • Trypsin (Trypsin 0.05%, EDTA 0.02% in PBS; EuroClone) • DMSO (Sigma) • Ca^2+ free Tyrode's buffer: in-house solution (130 mM NaCl, 5 mM KCl, 1 mM MgCl2, 5 mM NaHCO3, 20 mM HEPES in water at pH 7.4; sterile filtered). • Opti-MEM (Gibco) • Agonist: ML-SA1 (Sigma); stock: 60 mM in DMSO, stored at −20° C. • Blocker: ML-SI3 (in house synthesis); stock: 20 mM in DMSO, stored at −20° C.
The final clone for the TRPML1 assay is HEK T-REx/GCaMP6f/TRPML1.
GCaMP6f is a genetically encoded calcium indicator that is stably expressed in this cell line and used as a fluorescent read-out.
Experiments are performed in 384 MTP format. Cells are seeded at 15000 cells/well either in 25 μl/well of growth medium or in 20 μl/well of Optimem+0.5% FBS without selection antibiotics. Twenty-four hours later, cells are assayed for the response to various compounds using the Ca^2+ sensitive GCaMP6f protein stably expressed in the cells as readout.
The experiment is performed in a 384-well format according to the following procedures for either Ca^2+ free or Optimem conditions: • Ca^2+ free condition (in absence of extracellular Ca^2+): • 24 h after seeding, pre-incubate the cells at room temperature for about 10′. • Then remove the culture medium and replace it with 20 μL of Ca^2+ free Tyrode's buffer. • Start the experiment at the FLIPR^TETRA by injecting 10 μL/w of 3× concentrated test compounds and controls in Ca^2+ free Tyrode's buffer. Monitor the kinetic response over a period of 300 seconds. • Final DMSO concentration: 0.5% • Optimem condition (in presence of extracellular Ca^2+): • 24 h after seeding, pre-incubate the cells at room temperature for about 10′. • Start the experiment at the FLIPR^TETRA by injecting 10 μL/w of 3× concentrated test compounds and controls in Ca^2+ free Tyrode's buffer. Monitor the kinetic response over a period of 300 seconds. • Final DMSO concentration: 0.5%
Data from FLIPR^TETRA measurements are analyzed with the Genedata Screener® software.
Stimulator controls (Col 2): injection of ML-SA1 EC100 (50 μM) in alternated wells positions
Neutral controls (Col 2): injection of 0 mM Ca^2+ free Tyrode's buffer in alternated wells positions.
Test wells (Col 3-22): test compounds dose response curve from either 100 μM with 1:2 dilution steps or from 50 μM with 1:3.16 dilution steps.

[2] = target: T1, TRPML1; assay: TRPML1 automated patch-clamp (QPatch 16X); type: cell-based; conditions: HEK T-REx/GcaMP6f/TRPML1 cells, current with compound/current in vehicle, extracellular pH 4.6
Protocol: TRPML1—Automated Patch-Clamp
HEK T-REx/GcaMP6f/TRPML1 cells were cultured in DMEM High Glucose (Lonza BioWhittaker cat. BE12-604F/U1; 500 mL) supplemented with Fetal Bovine Serum TET-FREE (Euroclone cat. EC S0182L; 50 mL, Penicillin-Streptomycin (BioWhittaker, cat. DE17-602E; 5 mL of 100× Solution), G418 (Sigma, cat. G8168; 0.25 mg/ml) and Zeocyn (InvivoGen, cat. ant-zn-1; 50 μg/ml).
HEK T-REx/GcaMP6f/TRPML1 cells were seeded 48 or 72 hours before experiment, at a concentration of 8*10^6/4*10^6 cells onto a T225 flask. Just before the experiments, cells were washed twice with D-PBS w/o Ca^2+/Mg^2+ (Euroclone cat. ECB4004L) and detached from the flask with trypsin-EDTA (Sigma cat. T4174; diluted 1/10). Cells were then re-suspended in the suspension solution: 25 mL EX-CELL ACF CHO medium(Sigma cat. C5467); 0.625 mL HEPES (Sigma cat. H0887); 0.25 mL of 100× Penicillin/Streptomycin (Euroclone cat. ECB3001D), 0.1 mL of Soybean Trypsin Inhibitor 10 mg/mL (Sigma cat. T6522) and placed on the QPatch 16X.
Dilution from stock were prepared just before the experiments in the extracellular solution (0.25% final DMSO concentration). DMSO solution was obtained from AppliChem (cat. A3672)
Patch Clamp Solutions: • Intracellular solution (mM): 120 CsMeSO3, 4 NaCl, 2 MgCl2, 10 EGTA, 20 HEPES, 2 Mg-ATP (pH 7.2 with CsOH). • Extracellular solution (mM): 140 NaGluconate, 5 KCl, 1 MgCl2, 2 CaCl2), 10 Glucose, 10 MES (pH 4.6 with HCl).
Patch Clamp Analysis—QPatch 16X
For the voltage clamp experiments on TRPML1, data were sampled at 5 KHz. After establishment of the seal and the passage in the whole cell configuration, the cells were held at −20 mV and the TRPML1 current was evoked using the voltage protocol illustrated in FIG. 2, applied every 5 sec. (50 ms at −20 mV; 20 ms at −120 mV, 1000 ms ramp from −120 to […]; 20 ms at +40 mV, and back to −20 mV); in the absence (vehicle period, i.e. 0.25% DMSO) and in the presence of increasing concentrations (3) of the compound under investigation.
Agonists: For data collection, the Sophion proprietary software was used and the analysis was performed off-line using Excel and GraphPad Prism (V 8.00). Results are reported in Table 6, expressed as TRPML1 current fold increase evoked by the compound under investigation (i.e. current in the presence of the compound/current in vehicle).

T1 sequence (Q9GZU1 whole entry): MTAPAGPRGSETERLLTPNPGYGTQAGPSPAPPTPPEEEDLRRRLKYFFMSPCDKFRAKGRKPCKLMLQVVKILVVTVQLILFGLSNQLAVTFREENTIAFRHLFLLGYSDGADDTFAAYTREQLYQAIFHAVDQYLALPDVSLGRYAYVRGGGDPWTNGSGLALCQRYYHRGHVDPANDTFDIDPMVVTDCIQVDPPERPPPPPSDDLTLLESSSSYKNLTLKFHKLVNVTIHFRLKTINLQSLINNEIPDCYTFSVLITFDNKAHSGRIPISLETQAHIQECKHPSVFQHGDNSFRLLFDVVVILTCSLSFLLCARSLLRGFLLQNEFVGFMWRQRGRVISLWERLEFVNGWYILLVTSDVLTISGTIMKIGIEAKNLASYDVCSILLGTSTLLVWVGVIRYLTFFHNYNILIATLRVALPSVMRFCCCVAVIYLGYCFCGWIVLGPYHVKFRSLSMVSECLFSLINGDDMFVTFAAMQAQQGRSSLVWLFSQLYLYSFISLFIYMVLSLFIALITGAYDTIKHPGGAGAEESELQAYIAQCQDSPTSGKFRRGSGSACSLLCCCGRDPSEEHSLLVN

Row | Compound | EC50 [1] | further results
1 | COC(=O)N1CCN(c2ccccc2NS(=O)(=O)c2ccc(S(=O)(=O)N(C)C)cc2)CC1 [Example 52, methyl 4-{2-[4-(dimethylsulfamoyl)benzenesulfonamido]phenyl}piperazine-1-carboxylate] | 7.2 µM | Qpatch Assay TRPML1 agonism Current fold increase Mean ± SEM (n) ([2]; 0.3 μM compound): 1.3 ± 1.0 (3); Qpatch Assay TRPML1 agonism Current fold increase Mean ± SEM (n) ([2]; 3.0 μM compound): 10.4 ± 3.8 (3); Qpatch Assay TRPML1 agonism Current fold increase Mean ± SEM (n) ([2]; 30 μM compound): 472.5 ± 267.9 (3)
2 | Cc1ccc(S(=O)(=O)Nc2ccccc2N2CCC(C(=O)OC(C)(C)C)CC2)cc1 [Example 90] | 2.5 µM | Qpatch Assay TRPML1 agonism Current fold increase Mean ± SEM (n) ([2]; 0.3 μM compound): 140 ± 44.1 (4); Qpatch Assay TRPML1 agonism Current fold increase Mean ± SEM (n) ([2]; 3.0 μM compound): 83.1 ± 34.0 (2); Qpatch Assay TRPML1 agonism Current fold increase Mean ± SEM (n) ([2]; 30 μM compound): 112 ± 38.1 (2)
3 | CN(C(=O)c1ccc(S(=O)(=O)N(C)C)cc1)c1ccccc1N1CCN(C(=O)OC(C)(C)C)CC1 [Example 5, tert-butyl 4-(2-(4-(N,N-dimethylsulfamoyl)-N-methylbenzamido)phenyl)piperazine-1-carboxylate] | 6 µM | –
4 | CN(C)S(=O)(=O)c1ccc(S(=O)(=O)Nc2ccccc2N2CCOCC2)cc1 [Example 27, N1,N1-dimethyl-N4-[2-(morpholin-4-yl)phenyl]benzene-1,4-disulfonamide] | 13.3 µM | –
5 | CCCN(C)C(=O)C1CCN(c2ccccc2NS(=O)(=O)c2ccc(S(=O)(=O)N(C)C)cc2)CC1 [Example 14, 1-(2-((4-(N,N-dimethylsulfamoyl)phenyl)sulfonamido)phenyl)-N-methyl-N-propylpiperidine-4-carboxamide] | 19.7 µM | –
6 | CCCOC1CCN(c2ccccc2NS(=O)(=O)c2cc(C)oc2C)CC1 [Example 67, 2,5-dimethyl-N-(2-(4-propoxypiperidin-1-yl)phenyl)furan-3-sulfonamide] | 37.8 µM | –
7 | CC(C)c1ccc(S(=O)(=O)Nc2ccccc2N2CCC(C(=O)OC(C)(C)C)CC2)cc1 [Example 29, tert-butyl 1-(2-((4-isopropylphenyl)sulfonamido)phenyl)piperidine-4-carboxylate] | 2.3 µM | –
8 | CN(C)S(=O)(=O)c1ccc(CC(=O)Nc2ccccc2N2CCCC2)cc1 [Example 7, 2-[4-(dimethylsulfamoyl)phenyl]-N-[2-(pyrrolidin-1-yl)phenyl]acetamide] | 85.4 µM | –
9 | CCC(=O)N1CCN(c2ccccc2NS(=O)(=O)c2ccc(S(=O)(=O)N(C)C)cc2)CC1 [Example 71, N1,N1-dimethyl-N4-[2-(4-propanoylpiperazin-1-yl)phenyl]benzene-1,4-disulfonamide] | 17.3 µM | –
10 | CC1Cc2cc(S(=O)(=O)Nc3ccccc3N3CCN(C(=O)OC(C)(C)C)CC3)ccc2O1 (single isomer, unassigned) [Example 94, tert-butyl 4-(2-((2-methyl-2,3-dihydrobenzofuran)-5-sulfonamido)phenyl)piperazine-1-carboxylate] | 3.8 µM | –
11 | CN(C)S(=O)(=O)c1ccc(S(=O)(=O)Nc2ccccc2N2CCCC(c3ccccc3)C2)cc1 (stereo not shown) [Example 35, N1,N1-dimethyl-N4-[2-(3-phenylpiperidin-1-yl)phenyl]benzene-1,4-disulfonamide] | 7.7 µM | –
12 | CN(C(=O)c1ccc(S(=O)(=O)N(C)C)cc1)c1ccccc1N1CCC(Oc2ccccn2)CC1 [Example 10, 4-(N,N-dimethylsulfamoyl)-N-methyl-N-(2-(4-(pyridin-2-yloxy)piperidin-1-yl)phenyl)benzamide] | 8.4 µM | –
13 | CC(C)c1ccc(S(=O)(=O)Nc2ccccc2N2CCN(C(=O)OC(C)(C)C)CC2)cc1 [Example 28, tert-butyl 4-(2-((4-isopropylphenyl)sulfonamido)phenyl)piperazine-1-carboxylate] | 2.9 µM | –
14 | CN(C)S(=O)(=O)c1ccc(S(=O)(=O)Nc2ccccc2N2CCc3ccccc32)cc1 [Example 8, N4-[2-(2,3-dihydro-1H-indol-1-yl)phenyl]-N1,N1-dimethylbenzene-1,4-disulfonamide] | 64 µM | –
15 | CN(C)S(=O)(=O)c1ccc(S(=O)(=O)Nc2ccccc2N2CCC(Oc3ccncc3)CC2)cc1 [Example 106, N1,N1-dimethyl-N4-(2-(4-(pyridin-4-yloxy)piperidin-1-yl)phenyl)benzene-1,4-disulfonamide] | 8.6 µM | –
16 | CN(C)S(=O)(=O)c1ccc(S(=O)(=O)Nc2ccccc2N2CCC(Oc3ncccn3)CC2)cc1 [Example 89] | 3.2 µM | –
17 | CN(C)S(=O)(=O)c1ccc(S(=O)(=O)Nc2ccccc2N2CCN(C(=O)c3cccs3)CC2)cc1 [Example 79, N1,N1-dimethyl-N4-{2-[4-(thiophene-2-carbonyl)piperazin-1-yl]phenyl}benzene-1,4-disulfonamide] | 8.8 µM | –
18 | CN(C(=O)c1ccc(S(=O)(=O)N(C)C)cc1)c1ccccc1N1CC2CCC1C2 (stereo not shown) [Example 49, N-(2-{2-azabicyclo[2.2.1]heptan-2-yl}phenyl)-4-(dimethylsulfamoyl)-N-methylbenzamide] | 29.3 µM | –
19 | CN(C)S(=O)(=O)c1ccc(S(=O)(=O)NC2CCCCC2N2CCCCC2)cc1 (stereo not shown) [Example 22, N1,N1-dimethyl-N4-[2-(piperidin-1-yl)cyclohexyl]benzene-1,4-disulfonamide] | 98 µM | –
20 | CCCOC1CCN(c2ccccc2NS(=O)(=O)c2ccc(C)cc2C)CC1 [Example 66, 2,4-dimethyl-N-(2-(4-propoxypiperidin-1-yl)phenyl)benzenesulfonamide] | 22.1 µM | –
21 | CN(C)S(=O)(=O)c1ccc(S(=O)(=O)Nc2ccccc2N2CCCOCC2)cc1 [Example 43, N1-(2-(l,4-oxazepan-4-yl)phenyl)-N4,N4-dimethylbenzene-1,4-disulfonamide] | 7 µM | –
22 | Cc1ccc(S(=O)(=O)Nc2ccccc2N2CCN(C(=O)OC(C)(C)C)CC2)c(C)c1 [Example 50, tert-butyl 4-(2-((2,4-dimethylphenyl)sulfonamido)phenyl)piperazine-1-carboxylate] | 2.2 µM | –

— patent US20230010299A1, “HETEROCYCLIC TRPML1 AGONISTS” (LIBRA THERAPEUTICS, INC., priority 2019, published 2023)
